According to patent US8653096B2, “Chemokine receptor antagonists and methods of use thereof” (Millennium Pharmaceuticals, Inc., priority 2001, dated 2014):

The compounds below were run against T1, RANTES/MIP-1α chemokine receptor (CCR1) in THP-1 cell membranes (Homo sapiens, UniProt P32246) (assay: Receptor binding assay: 125I-RANTES or 125I-MIP-1α binding to THP-1 cell membranes). Details: enantiomers resolved from the racemate on ChiralPak AD; test not named.
T1 construct: Membranes were prepared from THP-1 cells (ATCC #TIB202); host or cells: THP-1 cells (membrane preparation)
T1 sequence (P32246 1-355): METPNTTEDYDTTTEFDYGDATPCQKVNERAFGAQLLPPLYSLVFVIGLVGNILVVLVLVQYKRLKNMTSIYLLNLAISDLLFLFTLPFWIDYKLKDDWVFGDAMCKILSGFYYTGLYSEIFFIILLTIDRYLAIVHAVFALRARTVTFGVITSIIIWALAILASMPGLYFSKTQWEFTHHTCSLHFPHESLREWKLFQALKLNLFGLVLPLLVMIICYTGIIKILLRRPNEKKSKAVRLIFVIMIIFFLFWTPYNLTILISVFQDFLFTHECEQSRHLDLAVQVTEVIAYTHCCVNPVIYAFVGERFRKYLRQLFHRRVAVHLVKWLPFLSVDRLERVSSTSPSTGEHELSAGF

SMILES | relative activity of resolved enantiomers
CC(C)(O)c1ccc2c(c1)C(=CCCN1CCC(O)(c3ccc(Cl)cc3)C(C)(CO)C1)c1cccnc1CO2 (single isomer, unassigned) [Example 483-1, 4-(4-Chloro-phenyl)-3-hydroxymethyl-1-{3-[7-(hydroxyl-1-methyl-ethyl)-11H-10-oxa-1-aza-dibenzo[a,d]cyclohepten-5-ylidene]-propyl}-3-methyl-piperidine-4-ol] | more active enantiomer
CC(C)(O)c1ccc2c(c1)C(=CCCN1CCC(O)(c3ccc(Cl)cc3)C(C)(CO)C1)c1cccnc1CO2 (single isomer, unassigned) [Example 483-2, 4-(4-Chloro-phenyl)-3-hydroxymethyl-1-{3-[7-(hydroxyl-1-methyl-ethyl)-11H-10-oxa-1-aza-dibenzo[a,d]cyclohepten-5-ylidene]-propyl}-3-methyl-piperidine-4-ol] | less active enantiomer

Same assay, conditions: inhibitor concentration required for 50% inhibition of specific binding; 125I-RANTES or 125I-MIP-1α as ligand, THP-1 cell membranes; read-out: IC50

SMILES | IC50
CC(C)(O)c1ccc2c(c1)C(=CCCN1CCC(O)(c3ccc(Cl)cc3)C(C)(CO)C1)c1cccnc1CO2 (single isomer, unassigned) [Example 483-1, 4-(4-Chloro-phenyl)-3-hydroxymethyl-1-{3-[7-(hydroxyl-1-methyl-ethyl)-11H-10-oxa-1-aza-dibenzo[a,d]cyclohepten-5-ylidene]-propyl}-3-methyl-piperidine-4-ol] | < 1000 nM
CC(C)(O)c1ccc2c(c1)C(=CCCN1CCC(O)(c3ccc(Cl)cc3)C(C)(CO)C1)c1cccnc1CO2 (single isomer, unassigned) [Example 483-2, 4-(4-Chloro-phenyl)-3-hydroxymethyl-1-{3-[7-(hydroxyl-1-methyl-ethyl)-11H-10-oxa-1-aza-dibenzo[a,d]cyclohepten-5-ylidene]-propyl}-3-methyl-piperidine-4-ol] | < 10000 nM
CCN(Cc1ccc(Cl)cc1)CC1CCN(CCC=C2c3cc(C(C)(C)O)ccc3OCc3ncccc32)C1 (stereo in doubt) [Example 526, (R)-2-{5-[3-(3-{[(4-Chloro-benzyl)-ethyl-amino]-methyl}-pyrrolidin-1-yl)-propylidene]5,11-dihydro-10-oxa-1-aza-dibenzo[a,d]cyclohepten-7-yl}-propan-2-ol] | < 1000 nM
OC1(c2ccc(Cl)cc2)CCN(CCC=C2c3ccccc3CCc3ccccc32)CC1 [Example 1, 4-(4-Chlorophenyl)-1-[3-(10,11-dihydro-5H-dibenzo[a,d]cycloheptene-5-ylidene)propyl]piperidin-4-ol] | < 1000 nM
OC1(c2ccc(Cl)cc2)CCN(CCC=C2c3ccccc3COc3ccccc32)CC1 [Example 2, 4-(4-Chlorophenyl)-1-[3-(6,11-dihydrodibenz[b,e]oxepin-11-ylidene)propyl]piperidin-4-ol] | < 1000 nM
OC1(c2ccc(Cl)cc2)CCN(CCC=C2c3ccccc3CSc3ccccc32)CC1 [Example 8, 4-(4-Chlorophenyl)-1-[3-(6,11-dihydro-dibenz[b,e]thiepin-11-ylidene)propyl]piperidin-4-ol] | < 1000 nM
O=C1c2ccccc2C(=CCCN2CCC(O)(c3ccc(Cl)cc3)CC2)c2ccccc2N1Cc1ccccc1 [Example 12, 1-[3-(5-Benzyl-6,11-dihydro-6-oxo-5H-dibenz[b,e]azepin-11-ylidene)propyl]-4-(4-chlorophenyl)-piperidin-4-ol] | < 1000 nM
O=C(O)CN1C(=O)c2ccccc2C(=CCCN2CCC(O)(c3ccc(Cl)cc3)CC2)c2ccccc21 [Example 17, 1-[3-(5-Carboxymethyl-6,11-dihydro-6-oxo-5H-dibenz[b,e]azepin-11-ylidene)propyl]-4-(4-chlorophenyl)-piperidin-4-ol] | < 10000 nM
CCOC(=O)CN1C(=O)c2ccccc2C(=CCCN2CCC(O)(c3ccc(Cl)cc3)CC2)c2ccccc21 [Example 18, 4-(4-Chlorophenyl)-1-[3-(6,11-dihydro-5-ethoxycarbonymethyl-6-oxo-5H-dibenz[b,e]azepin-11-ylidene)propyl]piperidin-4-ol] | < 1000 nM
CN1C(=O)c2ccccc2C(=CCCN2CCC(O)(c3ccc(Cl)cc3)CC2)c2ccccc21 [Example 19, 4-(4-Chlorophenyl)-1-[3-(6,11-dihydro-5-methyl-6-oxo-5H-dibenz[b,e]azepin-11-ylidene)propyl]piperidin-4-ol] | < 1000 nM
OC1(c2ccc(Cl)cc2)CCN(CCC=C2c3ccccc3C=Cc3ccccc32)CC1 [Example 21, 4-(4-Chlorophenyl)-1-[3-(5H-dibenzo[a,d]cycloheptene-5-ylidene)propyl]piperidin-4-ol] | < 1000 nM
COC(=O)c1ccc2c(c1)C(=CCCN1CCC(O)(c3ccc(Cl)cc3)CC1)c1ccccc1CO2 [Example 22, 4-(4-Chlorophenyl)-1-[3-(6,11-dihydro-2-methoxycarbonyldibenz[b,e]oxepin-11-ylidene)propyl]piperidin-4-ol] | < 1000 nM
CCCCOC(=O)c1ccc2c(c1)C(=CCCN1CCC(O)(c3ccc(Cl)cc3)CC1)c1ccccc1CO2 [Example 23, 1-[3-(2-Butoxycarbonyl-6,11-dihydrodibenz[b,e]oxepin-11-ylidene)propyl]-4-(4-chlorophenyl)piperidin-4-ol] | < 1000 nM
O=C(O)c1ccc2c(c1)C(=CCCN1CCC(O)(c3ccc(Cl)cc3)CC1)c1ccccc1CO2 [Example 24, 1-[3-(2-Carboxyl-6,11-dihydrodibenz[b,e]oxepin-11-ylidene)propyl]-4-(4-chlorophenyl)piperidin-4-ol] | < 10000 nM
CN(C)C(=O)c1ccc2c(c1)C(=CCCN1CCC(O)(c3ccc(Cl)cc3)CC1)c1ccccc1CO2 [Example 25, 4-(4-Chlorophenyl)-1-[3-(6,11-dihydro-2-dimethylaminocarbonyldibenz[b,e]oxepin-11-ylidene)propyl]piperidin-4-ol] | < 1000 nM
OCc1ccc2c(c1)C(=CCCN1CCC(O)(c3ccc(Cl)cc3)CC1)c1ccccc1CO2 [Example 26, 4-(4-Chlorophenyl)-1-[3-(6,11-dihydro-2-hydroxymethyldibenz[b,e]oxepin-11-ylidene)propyl]piperidin-4-ol] | < 1000 nM

SMILES | IC50
CC(C)(O)c1ccc2c(c1)C(=CCCN1CCC(O)(c3ccc(Cl)cc3)CC1)c1ccccc1CO2 [Example 27, 4-(4-Chlorophenyl)-1-[3-(6,11-dihydro-2-(1-hydroxy-1-methyl)ethyldibenz[b,e]oxepin-11-ylidene)propyl]piperidin-4-ol] | < 1000 nM
N#Cc1ccc2c(c1)C(=CCCN1CCC(O)(c3ccc(Cl)cc3)CC1)c1ccccc1CO2 [Example 28, 4-(4-Chlorophenyl)-1-[3-(2-cyano-6,11-dihydrodibenz[b,e]oxepin-11-ylidene)propyl]piperidin-4-ol] | < 1000 nM
NCc1ccc2c(c1)C(=CCCN1CCC(O)(c3ccc(Cl)cc3)CC1)c1ccccc1CO2 [Example 29, 1-[3-(2-Aminomethyl-6,11-dihydrodibenz[b,e]oxepin-11-ylidene)propyl]-4-(4-chlorophenyl)piperidin-4-ol] | < 1000 nM
O=[N+]([O-])c1ccc2c(c1)C(=CCCN1CCC(O)(c3ccc(Cl)cc3)CC1)c1ccccc1CO2 [Example 30, 4-(4-Chlorophenyl)-1-[3-(6,11-dihydro-2-nitrodibenz[b,e]oxepin-11-ylidene)propyl]piperidin-4-ol] | < 1000 nM
Nc1ccc2c(c1)C(=CCCN1CCC(O)(c3ccc(Cl)cc3)CC1)c1ccccc1CO2 [Example 31, 1-[3-(2-Amino-6,11-dihydrodibenz[b,e]oxepin-11-ylidene)propyl]-4-(4-chlorophenyl)piperidin-4-ol] | < 1000 nM
Oc1ccc2c(c1)C(=CCCN1CCC(O)(c3ccc(Cl)cc3)CC1)c1ccccc1CO2 [Example 32, 4-(4-Chlorophenyl)-1-[3-(6,11-dihydro-2-hydroxydibenz[b,e]oxepin-11-ylidene)propyl]piperidin-4-ol] | < 1000 nM
COc1ccc2c(c1)C(=CCCN1CCC(O)(c3ccc(Cl)cc3)CC1)c1ccccc1CO2 [Example 33, 4-(4-Chlorophenyl)-1-[3-(6,11-dihydro-2-methoxydibenz[b,e]oxepin-11-ylidene)propyl]piperidin-4-ol] | < 1000 nM
CCOc1ccc2c(c1)C(=CCCN1CCC(O)(c3ccc(Cl)cc3)CC1)c1ccccc1CO2 [Example 34, 4-(4-Chlorophenyl)-1-[3-(6,11-dihydro-2-ethoxydibenz[b,e]oxepin-11-ylidene)propyl]piperidin-4-ol] | < 1000 nM
OC1(c2ccc(Cl)cc2)CCN(CCC=C2c3ccccc3COc3cc(Br)ccc32)CC1 [Example 35, 1-[3-(3-Bromo-6,11-dihydrodibenz [b,e]oxepin-11-ylidene)propyl]-4-(4-chlorophenyl)piperidin-4-ol] | < 1000 nM
COC1(c2ccc(Cl)cc2)CCN(CCC=C2c3ccccc3COc3ccccc32)CC1 [Example 36, 4-(4-Chlorophenyl)-1-[3-(6,11-dihydrodibenz[b,e]oxepin-11-ylidene)propyl]-4-methoxypiperidine] | < 1000 nM
OC1(c2ccc(Cl)cc2)CCN(CCC=C2c3cc(Br)ccc3OCc3ccsc32)CC1 [Example 38, 1-[3-(8-Bromo-4,10-dihydrothieno[3,2-c][1]benzoxepin-10-ylidene)propyl]piperidin-4-(4-chlorophenyl)-4-ol] | < 1000 nM
O=C1Nc2ccccc2C(=CCCN2CCC(O)(c3ccc(Cl)cc3)CC2)c2ccccc21 [Example 39, 4-(4-Chlorophenyl)-1-[3-(6,11-dihydro-6-oxo-5H-dibenz[b,e]azepin-11-ylidene)propyl]piperidin-4-ol] | < 10000 nM
CCN1C(=O)c2ccccc2C(=CCCN2CCC(O)(c3ccc(Cl)cc3)CC2)c2ccccc21 [Example 40, 4-(4-Chlorophenyl)-1-[3-(6,11-dihydro-5-ethyl-6-oxo-5H-dibenz[b,e]azepin-11-ylidene)propyl]piperidin-4-ol] | < 1000 nM
CCCCN1C(=O)c2ccccc2C(=CCCN2CCC(O)(c3ccc(Cl)cc3)CC2)c2ccccc21 [Example 41, 1-[3-(5-n-Butyl-6,11-dihydro-6-oxo-5H-dibenz[b,e]azepin-11-ylidene)propyl]-4-(4-chlorophenyl)-piperidin-4-ol] | < 1000 nM
O=C1c2ccccc2C(=CCCN2CCC(O)(c3ccc(Cl)cc3)CC2)c2ccccc2N1CCCO [Example 42, 4-(4-Chlorophenyl)-1-[3-(6,11-dihydro-5-(3-hydroxypropyl)-6-oxo-5H-dibenz[b,e]azepin-11-ylidene)propyl]piperidin-4-ol] | < 1000 nM
